According to patent publication US20260015574A1, “METHODS FOR SHORTENING LAG PHASE DURATION IN MICROORGANISMS” (YEDA RESEARCH AND DEVELOPMENT CO. LTD., priority 2022, published 2026):

Assays:
[1] = system: Phaeobacter inhibens DSM 17395; experiment: Growth / lag phase shortening assay of P. inhibens pure cultures with glucose; assay type: cell-based; settings: for lag phase shortening effect (Δlag time) of panel compounds: 1 mM glucose and 2 μM of the respective compound
Procedure: ASW was adjusted to pH 8 using HCl. If not otherwise stated, the medium was further supplemented with a source of carbon (glucose, 1 mM), nitrogen (NH4Cl, 5 mM), and sulfur (Na2SO4, 33 mM), referred to as ASW+CNS. […] A 96-well Tecan Infinite M Plex plate reader was used for high-resolution monitoring of bacterial growth dynamics at 30° C. An ImageStreamX Flow Imager system (Amnis) was used to characterize bacterial populations during the lag phase (FIG. 6). The growth of bacteria in co-culture with algae was monitored by counting colony forming units (CFU) on ½ YTSS agar plates. The growth of algae was monitored with a CellStream flow cytometer (Merck, Darmstadt, Germany).
To test whether methylated compounds affect the growth of bacteria, the inventors cultivated bacterial pure cultures with glucose as main growth substrate and supplemented the medium with the well-studied methylated compound dimethylsulfoniopropionate (DMSP). DMSP that is naturally produced by microalgae and found in detectable levels in seawater, is known to be metabolized by various bacteria. […] To quantify the lag phase shortening effect, the inventors calculated the Δlag time, which is the time difference between the commence of exponential growth in control cultures compared to treated cultures (FIG. 5B).
To reflect the natural low bacterial abundance in the oligotrophic ocean with low microalgal productivity, the current bacterial growth experiments were routinely initiated with an optical density (OD) of 0.00001. Such low initial ODs challenge the detection of cell divisions that occur prior to reaching an OD of at least 0.001, which is the theoretical limit of detection. To determine the actual length of the lag phase, the inventors analyzed bacterial cultures using imagining flow cytometry.

[2] = system: P. inhibens Δbmt mutant; experiment: Growth and lag phase shortening in Δbmt mutant; assay type: cell-based, Phaeobacter inhibens; settings: minimal media, addition of 200 μM methionine
Procedure: (§1) For creation of P. inhibens knockout cells, ˜1,000 bp regions upstream and downstream of the gene of interest were amplified by PCR (Phusion High-Fidelity DNA polymerase, Thermo Scientific), using primers that added homologous regions to gentamycin or kanamycin resistance markers. The fragments were assembled and cloned into the TOPOII vector (Invitrogen) using restriction-free cloning (Peleg Y. & Unger T., 2014), generating a knockout (KO) plasmid. P. inhibens electrocompetent cells (300 μl) were transformed with 10 μg of the constructed KO plasmid by a pulse of 1.8 kV (Bio Rad). Cells were selected on ½YTSS agar plates containing 30 μg/ml gentamycin or 150 μg/ml kanamycin. Successful knockouts in single cell clones were verified by PCR and sanger sequencing.

[3] = system: P. inhibens; experiment: Lag phase metabolomics with 13C-labeled DMSP; assay type: cell-based, Phaeobacter inhibens; settings: 50 μM 13C-labeled DMSP, two hours, LC/MS
Procedure: DMSP was synthesized in which both S-methyl groups are ^13C-labeled, using the protocol of Wirth and Whitman (2018). Freshly initiated P. inhibens cultures (OD 0.01, ASW+CNS medium) were treated with 50 μM 13C-labeled DMSP and compared to reference cultures with non-labeled DMSP. Bacterial cells were harvested and extracted two hours after adding DMSP. The incorporation of the 13C label was analyzed by LC/MS (FIG. 12).
To further elucidate the fate of methyl groups, the inventors analyzed the transcriptome of DMSP-treated P. inhibens bacteria during the lag phase, and compared it to untreated control cultures. […] To further establish that DMSP methyl groups are assimilated via the methionine cycle, the inventors measured the methionine synthesis activity in protein crude extracts of stationary bacterial cells, using a biochemical assay followed by LC/MS analysis. […] Taken together, the inventors established that DMSP methyl groups are assimilated during the lag phase via the methionine cycle.

[4] = system: P. inhibens mttB1 KO mutant; experiment: Lag phase shortening in mttB1 knockout mutant; assay type: cell-based, Phaeobacter inhibens
Procedure: as §1
The inventors further sought to better understand why methyl groups shorten the bacterial lag phase. The inventors list at least three cellular scenarios which could explain the effect that methylated compounds have on the lag phase: (1) methyl groups might be a limiting resource; (2) methyl groups might act as a signal that triggers a cellular cascade, which culminates in lag phase shortening; and (3) methylated compounds could accumulate intracellularly and function as osmoprotectants and antioxidants. […]

[5] = system: Bacillus subtilis strain 168; experiment: Lag phase shortening in B. subtilis; assay type: cell-based
Procedure: The bacterial strain Phaeobacter inhibens DSM 17395 was purchased from the German collection of microorganisms and cell cultures (DSMZ, Braunschweig, Germany) and stored at −80° C. with 20% glycerol. Routine cultivation of P. inhibens was conducted at 30° C. in artificial seawater medium (ASW) based on Goyet and Poisson (1989). The ASW medium contained mineral salts (NaCl, 409.41 mM; Na2SO4, 28.22 mM; KCl, 9.08 mM; KBr, 0.82 mM; NaF, 0.07 mM; Na2CO3, 0.20 mM; NaHCO3, 2 mM; MgCl2, 50.66 mM; SrCl2, 0.09 mM), L1 vitamins (thiamine HCl, 100 μg/L; biotin, 0.5 μg/L; vitamin B12, […]), L1 trace elements (Na2EDTA·2H2O, 4.36 mg/L; FeCl3·6H2O, 3.15 mg/L; MnCl2·4H2O, 178.1 μg/L; ZnSO4·7H2O, 23.0 μg/L; CoCl2·6H2O, 11.9 μg/L; CuSO4·5H2O, 2.5 μg/L; Na2MoO4·2H2O, 19.9 μg/L; H2SeO3, 1.29 μg/L; NiSO4·6H2O, 2.63 μg/L; Na3 VO4, 1.84 μg/L; K2CrO4, 1.94 μg/L), and L1 nutrients (NaNO3, 882 μM; NaH2PO4, 36.22 μM). ASW was adjusted to pH 8 using HCl. If not otherwise stated, the medium was further supplemented with a source of carbon (glucose, 1 mM), nitrogen (NH4Cl, 5 mM), and sulfur (Na2SO4, 33 mM), referred to as ASW+CNS. Methylated effector compounds (e.g., donors) were administered at 1 or 2 μM in routine assays, or in higher concentrations as stated. The bacterium Bacillus subtilis strain 168 was cultivated in M9 Medium (Na2HPO4, 6 g/L; KH2PO4, 3 g/L; NaCl, 0.5 g/L; NH4CL, 1 g/L; CaCl2), 100 µM; MgSO4, 1 mM; Thiamine, 5 mg/L; EDTA, 50 mg/L; FcCl3, 4.98 mg/L; ZnCl2, 0.84 mg/L; CuCl2·2H2O, 0.13 mg/L; CoCl2·6H2O, 0.1 mg/L; H3BO3, 0.1 mg/L; MnCl2·4H2O, 0.016 mg/L; pH 7.1) with 20 mM glucose. Other bacterial strains tested for lag phase shortening were isolated from the marine environment (Despotović et al., 2021), and cultivated in ASW+CNS. A 96-well Tecan Infinite M Plex plate reader was used for high-resolution monitoring of bacterial growth dynamics at 30° C. […] The growth of bacteria in co-culture with algae was monitored by counting colony forming units (CFU) on ½ YTSS agar plates. The growth of algae was monitored with a CellStream flow cytometer (Merck, Darmstadt, Germany). […]

[6] = system: marine bacterium Vibrio sp.; experiment: Lag phase shortening in Vibrio sp.; assay type: cell-based; settings: 2 μM compound
Procedure: (§2) The bacterial strain Phaeobacter inhibens DSM 17395 was purchased from the German collection of microorganisms and cell cultures (DSMZ, Braunschweig, Germany) and stored at −80° C. with 20% glycerol. Routine cultivation of P. inhibens was conducted at 30° C. in artificial seawater medium (ASW) based on Goyet and Poisson (1989). The ASW medium contained mineral salts (NaCl, 409.41 mM; Na2SO4, 28.22 mM; KCl, 9.08 mM; KBr, 0.82 mM; NaF, 0.07 mM; Na2CO3, 0.20 mM; NaHCO3, 2 mM; MgCl2, 50.66 mM; SrCl2, 0.09 mM), L1 vitamins (thiamine HCl, 100 μg/L; biotin, 0.5 μg/L; vitamin B12, […]), L1 trace elements (Na2EDTA·2H2O, 4.36 mg/L; FeCl3·6H2O, 3.15 mg/L; MnCl2·4H2O, 178.1 μg/L; ZnSO4·7H2O, 23.0 μg/L; CoCl2·6H2O, 11.9 μg/L; CuSO4·5H2O, 2.5 μg/L; Na2MoO4·2H2O, 19.9 μg/L; H2SeO3, 1.29 μg/L; NiSO4·6H2O, 2.63 μg/L; Na3 VO4, 1.84 μg/L; K2CrO4, 1.94 μg/L), and L1 nutrients (NaNO3, 882 μM; NaH2PO4, 36.22 μM). ASW was adjusted to pH 8 using HCl. […] A 96-well Tecan Infinite M Plex plate reader was used for high-resolution monitoring of bacterial growth dynamics at 30° C. […] The growth of bacteria in co-culture with algae was monitored by counting colony forming units (CFU) on ½ YTSS agar plates. The growth of algae was monitored with a CellStream flow cytometer (Merck, Darmstadt, Germany). […]

[7] = system: E. coli; experiment: Lag phase shortening in E. coli; assay type: cell-based, Escherichia coli
From the text: (§3) To explore whether lag phase shortening is a general mechanism among bacteria, the inventors tested the effect of methylated compounds in bacteria with different lifestyles. […] Since methylated compounds are a hallmark of photosynthesizing organisms, the inventors next tested a variety of bacteria that are plant-associated. […] Finally, to establish the prevalence of lag phase shortening among bacteria, the inventors tested the model bacterium E. coli. This bacterium is not commonly found associated with photosynthesizing organisms, and thus, is unlikely to respond to algal metabolites. […] The synchrony between specific compounds and different groups of bacteria may reflect the natural context […].

[8] = system: Various marine bacteria; experiment: Lag phase shortening in various marine bacteria; assay type: cell-based; settings: minute amounts of compound
Procedure: as §2

[9] = system: bacteria that are plant-associated; experiment: Lag phase shortening in plant-associated bacteria; assay type: cell-based
From the text: as §3

[10] = system: opportunistic pathogens, found in both plants and humans; experiment: Lag phase shortening in opportunistic pathogens found in plants and humans; assay type: cell-based
From the text: as §3

With `COc1cc(Cc2cnc(N)nc2N)cc(OC)c1OC` [Trimethoprim, reference compound] the “growth of P. inhibens in the presence of the THF inhibitor” value [1] was “cannot grow unless the culture is supplemented with nucleotides”.

For `CSCC[C@H](N)C(=O)O` [methionine], the “lag phase shortening effect (Δlag time) of panel compounds” value (shortened to “lag phase shortening effect (Δlag time)”) [1] was “prolonged the lag phase” and the “growth of the Δbmt mutant” value [2] was “fully recovered”.

For `C[N+](C)(C)CC(O)CC(=O)[O-]` (centres unmarked) [carnitine], the “lag phase shortening effect (Δlag time)” value [1] was “most pronounced”.

For `C[N+]1(C)CCC[C@H]1C(=O)[O-]` [stachydrine], the “lag phase shortening effect (Δlag time)” value [1] was “most pronounced”.

For `C[S+](C)CCC(O)CC(=O)[O-]` (centres unmarked) [gonyol], the “lag phase shortening effect (Δlag time)” value [1] was “most pronounced”.

`[13CH3][S+]([13CH3])CCC(=O)[O-]` [13C-labeled DMSP] was tested, and the “metabolic fate of DMSP methyl groups (13C label incorporation)” value [3] was “converted into SAM”.

With `C[S+](C)CC(=O)[O-]` [DMSA, dimethylsulfonioacetate] the “lag phase shortening effect (Δlag time)” value [1] was “most pronounced”.

For `C[N+](C)(C)CC(=O)O` [betaine, glycine betaine], the “lag phase shortening effect (Δlag time)” value [1] was “most pronounced”, the lag phase shortening [4] was “does not shorten the lag phase” and the lag phase shortening ([5]; 2 μM compound) was “induction of the lag phase shortening”. The Δlag time ([5]; FIG. 17B) was 7 h, the lag phase shortening [6] was “induction of the lag phase shortening” and the lag phase shortening ([7]; treatment with algal metabolites) was “did not shorten the lag phase”. The lag phase shortening [8] was “marked lag phase shortening” and the lag phase shortening [9] was “significant shortening of the lag phase”.

For `C[S+](C)CC[C@H](N)C(=O)O` [SMM, S-methyl-L-methionine], the Δlag time ([7]; E. coli BL21, 2 μM SMM (FIG. 17C)) was “Δlag time of one hour”, the lag phase shortening ([7]; modified strains BL21(DE3) and DH5α) was “this effect was observed” and the lag phase shortening ([7]; wild-type strain K12) was “only showed this effect upon addition of greater SMM concentrations”. For the same molecule, the lag phase shortening [10] was “shorten their lag phase”.
